Test results published in US11904057B2, “Nanoparticle-hydrogel composite for nucleic acid molecule delivery” (The United States of America, as represented by the …, priority 2018, dated 2024).

Key:
[1] = system: FAM-labeled scrambled miRNA; assay: Fluorescence-based binding assay between peptides and miRNA; conditions: 30 nM FAM-miRNA; peptide vs miRNA molar ratio 0.3125 to 1000; complexed in water, diluted with 25 mM HEPES pH 7.4
Experimental: Binding interactions among peptides and miRNA were studied using a fluorescence measurement. Scrambled miRNA (sequence mismatched with all possible mRNAs in human) labeled with FAM (6-carboxyfluorescein, 5′ end) was mixed with peptides having peptide vs miRNA molar ratio ranging from 0.3125 to 1000. Complexation was first performed in water, followed by dilution of the complex with HEPES (25 mM HEPES, pH 7.4) to keep pH of the suspension unaltered across all peptide concentrations. With increasing mole ratio, FAM fluorescence gradually gets quenched resulting from peptide-mediated condensation. […] Concentrations of Peptide 1 to induce maximum quenching were close to a molar ratio of 50:1 between Peptide 1 and miRNA which corresponds to an N/P ratio (charge ratio) of 10:1. Accordingly, a ratio of 10:1 as the N/P ratio was used for further assessment.
Fluorescence-based binding assay was used to determine interaction between peptides and miRNA. […] FAM fluorophore on miRNA was excited at 490 nm and emission at 520 nm was recorded using a microplate reader (Tecan Infinite 200) with a band-pass filter of 20 nm. A PTI fluorimeter was used to record fluorescence spectrum for Peptide 1/miRNA nanoparticles at N/P ratio 10:1 (molar ratio of 50:1, Peptide 1 vs miRNA) in the emission range of 500-700 nm.

[2] = Hydrogel composite formation with different hydrogelating peptides; format: physicochemical; conditions: 24 h post-assembly, irrespective of nanoparticle loaded
Experimental: Preparation and characterization of hydrogel composites. Required amount of miRNA was diluted in water and mixed with an aqueous solution of Peptide 1 in a 10:1 N/P ratio to maintain a final volume of 25 μL. The suspension was incubated for 30 min at 37° C. with constant agitation and the resulting nanoparticles were mixed with 25 μL of chilled 2×HBS (50 mM HEPES 300 mM NaCl, pH 7.4). 50 μL of 1% (w/v) solution of a hydrogelating peptide (Peptides 1, 2, 3 and 4) was prepared in a chilled 25 mM HEPES (pH 7.4), mixed with an equal volume of nanoparticle suspension and incubated at 37° C. for overnight to afford 0.5 wt % hydrogel composites. Gel composites containing 1% of hydrogelating peptide was also prepared similarly. For Transmission Electron Microscopy of gel composites, ˜4 μL of the sample was deposited onto 200 mesh carbon coated copper grids and allowed to adhere for 30 seconds. The excess sample was removed with a filter paper. Uranyl acetate (5 μL) was used to stain the grids for 30 seconds. Grids were dried for 2-3 minutes. Images were acquired using a Tecnai T12 transmission electron microscope.

[3] = Circular dichroism spectroscopy of Peptide 1 with miRNA / heparin; format: physicochemical
Experimental: Circular Dichroism Spectroscopy. Secondary structure of Peptide 1 in presence or absence of added miRNA was determined using Circular Dichroism (CD) spectroscopy. For recording CD spectra in water, 150 μL from the aqueous solutions of Peptide 1 was mixed with 150 μL of an aqueous solution of scrambled miRNA to maintain peptide vs miRNA N/P ratios at 10:1, 5:1, 2:1 and 1:1. These N/P ratios correspond to peptide vs miRNA mole ratios of 50:1, 25:1, 10:[…], respectively. Nanoparticles and soluble peptides of 300 μL total volume were equilibrated for 30 min at 37° C. with agitation. Final concentration of miRNA was maintained at 5 μM. Samples were transferred into a quartz cell of path-length 1 mm and data collection were initiated immediately. Ellipticity was measured over a wavelength range of 190-260 nm at 37° C., using 1 nm step size and a set of 3-5 scans. Raw data was corrected by subtracting the absorbance of samples from those of miRNA and converted to mean residue ellipticity using the equation: [θ]=θobs/(10*l*c*r) where θobs is the measured ellipticity (mdeg), l is the path length (0.1 cm), c is the concentration of peptide (determined from UV absorbance at 220 nm) and r corresponds to the number of amino acid residues in the peptide. […]

[4] = system: H2052 cells; assay: LDH cytotoxicity assay; format: cell-based, human; conditions: 4 h post-incubation
Experimental: LDH assay kit (Roche) was used to determine any possible cytotoxicity of Peptide 1/miRNA nanoparticles and soluble Peptide 1. Cell supernatant was taken out after 4 h of treatment and a reaction mixture containing diaphorase/NAD+/iodotetrazolium chloride/sodium lactate was added following manufacturer's instructions to detect any released LDH (Lactate Dehydrogenase). Triton X-100 at a final concentration was used as a high control for maximal releasable LDH, while untreated cells were taken as low control for spontaneous LDH release. Absorbance was measured at 490 nm after 5 minutes of incubation at 37° C. Cytotoxicity was calculated using the equation: (Absorbance^treated−Absorbance^low control/Absorbance^high control−Absorbance^low control)×100.

[5] = system: H2052 cells; assay: Specificity of endocytosis inhibitors (Transferrin / Dextran uptake, flow cytometry); format: cell-based, human; conditions: Transferrin and Dextran (70 kD) markers, 1 h
Experimental: FIGS. 10A-10D. Determining the effect of chemical inhibitors on endocytic uptake of Transferrin and Dextran (70 kD), the markers for clathrin-dependent and macropinocytic pathways, in H2052 human mesothelioma cells. Flow cytometric histograms of cells treated with (FIG. 10A) Rhodamine-labeled Transferrin for 1 h in presence or absence of Cytochalasin D, Dynasore, EIPA and cells treated (FIG. 10B) with Rhodamine-labeled Transferrin for 1 h in presence or absence of Cytochalasin D, Dynasore, EIPA. Flow cytometric histograms of cells (FIG. 10C) treated with FITC-labeled Dextran and cells treated with FITC-labeled Dextran (FIG. 10D) for 1 h in presence or absence of Nystatin.
Flow cytometry. In vitro miRNA transfection efficiency of nanoparticles was determined using human mesothelioma cell H2052 (ATCC). For flow cytometry, 1.2×10^5 cells were seeded on 6 well plate 24 h before treatment and allowed to grow under normal culture conditions. FAM (6-carboxyfluorescein, 5′ end)-labeled scrambled miRNA (Thermo Fisher) was complexed with Peptide 1 in a 10:1 N/P ratio according to the protocol described above. Nanoparticles obtained were diluted with optiMEM (Thermo Fisher) to maintain a final miRNA concentration of 40 nM. Complexes of commercial transfection agents (In vivo jet PEI, Polyplus-transfection and DharmaFECT, Dharmacon) and equivalent amount of miRNA were prepared according to manufacturers' instruction. […] To determine the specificity of the inhibitors towards each endocytic pathway in H2052 cells, cellular internalization of Rhodamine or FITC-labeled Transferrin (marker for clathrin mediated uptake, Thermo Fisher) and Rhodamine or FITC-labeled Dextran (70 kD, marker for micropinocytosis, Thermo Fisher) in presence and absence of inhibitors were analyzed with flow cytometry. […] Median fluorescence intensity (MFI) for gated live cell population was determined for cells treated with each inhibitor and normalized with respect to the sample without inhibitor treatment.

Compound | Extent of quenching of FAM fluorescence (peptide-mediated condensation of miRNA) [1] | Endocytic pathway inhibited [5] | other results
VKVKVKVKV^DPPTKVKVKVKV-NH2 [Peptide 1] | maximal |  | Formation of gel-like material when used as self-assembling peptide [2]: does not form a gel-like material; Folding into a β-hairpin structure in the nanoparticles ([3]; N/P ratio 10:1, water): not enough to induce any significant folding; Heparin concentration at which evolution of β-sheet structure starts ([3]; Peptide 1 complexed with miRNA at N/P 10:1, water, 37° C.): 50 µg/mL; Cytotoxicity as compared to positive control Triton X-100 [4]: 20%
VLTKVKTKV^DPPTKVEVKVLV-NH2 [Peptide 3] | not able to promote significant condensation of miRNA |  | 
C=C1[C@@H](C)[C@H]2[C@H](Cc3ccccc3)NC(=O)[C@]23[C@H](OC(C)=O)/C=C/[C@@](C)(O)C(=O)[C@@H](C)C/C=C/[C@H]3[C@@H]1O [Cytochalasin D] |  | inhibitors for clathrin-dependent pathways | 
CCN(c1nc(N)c(C(=O)NC(=N)N)nc1Cl)C(C)C [EIPA] |  | selective inhibitor of micropinocytosis | 
O=C(N/N=C/c1ccc(O)c(O)c1)c1cc2ccccc2cc1O [Dynasore] |  | inhibitors for clathrin-dependent pathways | 
